Read-outs that look alike come from different tables or passages of the source.
Columns and labels:
[1] = test system: tremorine-induced cholinergic effects; assay: Anti-tremorine test; format: in vivo, mice (male, OF1 strain); design: key to central cholinergic effects score (normal and provoked tremor): 0: no action; 1: slight action; 2: average action; 3: strong action; 4: very strong action
Method: When injected into mice, tremorine produces peripheral effects i.e. weeping, sweating, salivation and diarrhoea and central effects i.e. tremor and akinesia. Such effects are due to an increase in the amount of intracerebral acetylcholine and serotonine.
Male mice of the OF1 strain weighing about 22 g were divided into batches of 10. […] Thirty minutes later a dose of 10 mg/kg of tremorine was injected by intraperitoneal route and, at different times after this injection, note was taken of the cholinergic effects on each animal in accordance with the following scale: […]

electrocardiogram = assay: Electrocardiogram; format: in vivo; settings: dog, injected, 5 mg/kg
[2] = test system: norepinephrine effects on arterial pressure and nictitating membrane; settings: in vivo, iv
[3] = test system: norepinephrine effects on arterial pressure and nictitating membrane; assay: Influence on peripheral noradrenergic phenomena (arterial pressure, nictitating membrane); settings: cat
[4] = test system: neuroleptic-induced catatonia (prochlorperazine); assay: Inhibition of neuroleptic-induced catatonia; format: in vivo, rat (male, OFA strain); settings: rat, oral; for activity compared with amantadine (neuroleptic-induced catatonia): versus amantadine
Method: The blocking of dopaminergic receptors by neuroleptics in the extra-pyramidal system induces catatonia in the rat. Catatonia is differentiated from sedative properties by means of the test used hereabove for reserpine-induced catatonia. The same system of scoring was also employed in the present case.
An oral dose of the compound to be studied in aqueous solution was administered to batches of 10 male rats of the OFA strain weighing about 150 to 200 g.
Three hours after the injection of this latter compound, catatonia was measured. An identical trial was also carried out with control animals which received prochlorperazine but none of the compounds under study.

mice = settings: for Index LD50/ED20-30: LD50 mice oral / dose giving 20 to 30% inhibition of catatonia; for Index LD50/ED100: LD50 mice oral / dose giving 100% inhibition of catatonia
[5] = test system: reserpine-induced catatonia; assay: Inhibition of reserpine-induced catatonia; format: in vivo, rat (male, OFA strain); settings: rat, oral
Method: Ater sufficient doses of reserpine have been administered to the rat, a series of symptoms occur, more particularly ptosis, catatonia and a drop in central temperature. These symptoms are caused by the depletion of the intrangranular reserve pool of biogenetic amines at the synaptic terminals.
An oral dose of the compound to be studied in aqueous solution was administered to batches of 10 male rats of the OFA strain weighing about 150 to 200 g. Thirty minutes later a dose of 5 mg/kg of reserpine was given by intraperitoneal route. Three hours after the injection of reserpine, the animals were suspended by the four paws to a horizontally stretched wire fixed at 15 cm from the ground. The catatonic animals were those which maintained the position so given for at least 30 seconds. […] The maximum score was therefore 10 per batch. An identical trial was undertaken with control animals which received reserpine but none of the compounds being studied.

[6] = J. Amer. Chem. Soc., 71, 3352 (1949); cited from earlier work
[7] = J. Amer. Chem. Soc., 71, 3352 (1949); cited from earlier work; remark: listed apart in the source
in vivo = settings: mouse, po
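Wherever Index LD50/ED100 is given: LD50 part of every column derived from compounds dosed in aqueous solution, deaths followed over a 10-day observation period after dosing.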
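Wherever Index LD50/ED20-30 is given: LD50 part of every column derived from compounds dosed in aqueous solution, deaths followed over a 10-day observation period after dosing.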
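Wherever LD50 is given: LD50 part of every column derived from compounds dosed in aqueous solution, deaths followed over a 10-day observation period after dosing.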

## NC12CC3CC(CC(C3)C1)C2 [Amantadine, 1-amino-adamantane]
[1]; 40 mg/kg oral, 20, 30 and 40 minutes after tremorine, printed as identical results
  central cholinergic effects score (normal and provoked tremor): 4
[1]; mice, oral
  antitremorine properties: devoid of antitremorine properties
electrocardiogram
  effect on the electrocardiogram / cardiac rhythm: provokes cardiac arrhythmia due to ventricular extrasystoles
[2]; cat
  dose from which exogenous norepinephrine is potentiated: ≥ 1 mg/kg
  dose from which ganglioplegic properties are shown: ≥ 5 mg/kg
[2]; 0.1 mg/kg
  Contractile reaction of the nictitating membrane with electric stimulation: 20 mm
  Contractile reaction of the nictitating membrane without electric stimulation: 0 mm
  Increase in arterial pressure after injection of norepinephrine: 29 mm Hg
[2]; 1 mg/kg
  Contractile reaction of the nictitating membrane with electric stimulation: 20 mm
  Contractile reaction of the nictitating membrane without electric stimulation: 3 mm
  Increase in arterial pressure after injection of norepinephrine: 35 mm Hg
[2]; 3 mg/kg
  Contractile reaction of the nictitating membrane with electric stimulation: 16 mm
  Contractile reaction of the nictitating membrane without electric stimulation: 4.4 mm
  Increase in arterial pressure after injection of norepinephrine: 35 mm Hg
[2]; 5 mg/kg
  Contractile reaction of the nictitating membrane with electric stimulation: 10 mm
  Contractile reaction of the nictitating membrane without electric stimulation: 5.9 mm
  Increase in arterial pressure after injection of norepinephrine: 59 mm Hg
[2]; 10 mg/kg
  Contractile reaction of the nictitating membrane with electric stimulation: 4 mm
  Contractile reaction of the nictitating membrane without electric stimulation: 7.5 mm
  Increase in arterial pressure after injection of norepinephrine: 57 mm Hg
[3]
  own effect on contractile reactions of the nictitating membrane: stimulates the contractile reactions of the nictitating membrane
  potentiation of exogenous norepinephrine / peripheral adrenergic effects: potentiates the peripheral adrenergic effects
  potentiation of the effects of the electric stimulation: does not potentiate

## CCCC(N)(CC)CCC [Compound 2, 1-Ethyl-1-n-propyl-n-butylamine]
[4]; 5 mg/kg
  Inhibition of the neuroleptic-induced catatonia: 1 (represents 20 to 30% inhibition of catatonia in comparison with the controls (namely a score of 7 to 8 per studied batch))
mice
  Index LD50/ED20-30: 30

## CCCC(N)(CC)CC(C)C (stereo not shown) [Compound 3, 1-Ethyl-1-isobutyl-n-butylamine]
[4]; 20 mg/kg
  Inhibition of the neuroleptic-induced catatonia: 3 (represents 70 to 80% inhibition of catatonia in comparison with the controls (namely a score of 2 or 3 per studied batch))

## CCCC(N)(CCC)CC(C)C [Compound 5, 1-n-Propyl-1-isobutyl-n-butylamine]
[5]; 20 mg/kg
  Inhibition of reserpine-induced catatonia: 2 (represents 50% inhibition of catatonia in comparison with the controls (namely a score of 5 per studied batch))
[4]
  activity compared with amantadine (neuroleptic-induced catatonia): five times more active

## CCCC(C)(N)CC(C)CC (stereo not shown) [Compound 6, 1,3-Dimethyl-1-n-propyl-n-pentylamine]
mice
  Index LD50/ED20-30: > 25

## CCCCC(C)(N)CC(C)C (stereo not shown) [Compound 8, 1-Methyl-1-isobutyl-n-pentylamine]
[4]
  activity compared with amantadine (neuroleptic-induced catatonia): twice as active

## CCCCCC(C)(N)CCC (stereo not shown) [Compound 9, 1-Methyl-1-n-propyl-n-hexylamine]
mice
  Index LD50/ED20-30: 87

## CCCCC(N)(CCCC)CCCC [Compound 12, 1,1-Di-n-butyl-n-pentylamine]
mice
  Index LD50/ED20-30: 25
[6]
  spasmolytic activity versus the corresponding trialkylethylamines: less spasmolytic
[7]
  toxicity versus the corresponding trialkylethylamines: more toxic

## CCCC(CCC)(CCC)NC [Compound 27, N-methyl-1,1-di-n-propyl-n-butylamine]
[4]; 6 mg/kg
  Inhibition of the neuroleptic-induced catatonia: 3 (represents 70 to 80% inhibition of catatonia in comparison with the controls (namely a score of 2 or 3 per studied batch))
mice
  Index LD50/ED100: 16.5
In vivo
  LD50 at 240 h: 100 mg/kg

## CCCC(CCC)(CCC)N1CCC1 [Compound 29, N,n-trimethylene-1,1-di-n-propyl-n-butylamine]
mice
  Index LD50/ED100: 10.8
In vivo
  LD50 at 240 h: 65 mg/kg

## CCCC(CCC)(NC)C(C)C [Compound 30, N-methyl-1-n-propyl-1-isopropyl-n-butylamine]
[4]; 6 mg/kg
  Inhibition of the neuroleptic-induced catatonia: 3 (represents 70 to 80% inhibition of catatonia in comparison with the controls (namely a score of 2 or 3 per studied batch))
mice
  Index LD50/ED100: > 25
In vivo
  LD50 at 240 h: > 150 mg/kg

## C=CCC(CCC)(CCC)NC [Compound 32, N-methyl-1-n-propyl-1-alkyl-n-butylamine]
[5]; 5 mg/kg
  Inhibition of reserpine-induced catatonia: 2 (represents 50% inhibition of catatonia in comparison with the controls (namely a score of 5 per studied batch))
In vivo
  LD50 at 240 h: 170 mg/kg

## CCCC(CCC)(CCC)NCC [Compound 33, N-ethyl-1,1-di-n-propyl-n-butylamine]
[5]; 6 mg/kg
  Inhibition of reserpine-induced catatonia: 2 (represents 50% inhibition of catatonia in comparison with the controls (namely a score of 5 per studied batch))
mice
  Index LD50/ED100: 16.5
In vivo
  LD50 at 240 h: 100 mg/kg

## CCCC(CCC)(CCC)NC(C)C [Compound 34, N-isopropyl-1,1-di-n-propyl-n-butylamine]
[5]; 6.5 mg/kg
  Inhibition of reserpine-induced catatonia: 2 (represents 50% inhibition of catatonia in comparison with the controls (namely a score of 5 per studied batch))
mice
  Index LD50/ED100: 21.6

## C=CCNC(CCC)(CCC)CCC [Compound 35, N-allyl-1,1-di-n-propyl-n-butylamine]
[5]; 6 mg/kg
  Inhibition of reserpine-induced catatonia: 2 (represents 50% inhibition of catatonia in comparison with the controls (namely a score of 5 per studied batch))
mice
  Index LD50/ED100: 21
In vivo
  LD50 at 240 h: 130 mg/kg

## C#CCNC(CCC)(CCC)CCC [Compound 36, N-propargyl-1,1-di-n-propyl-n-butylamine]
mice
  Index LD50/ED20-30: > 25
In vivo
  LD50 at 240 h: > 150 mg/kg

## CCCC(CCC)(CC(C)C)N(C)C [Compound 37, N,n-dimethyl-1-n-propyl-1-isobutyl-n-butylamine]
In vivo
  LD50 at 240 h: 110 mg/kg

## CCCC(CCC)(CCC)N(C)CC [Compound 38, N-methyl-N-ethyl-1,1-di-n-propyl-n-butylamine]
[5]; 6.5 mg/kg
  Inhibition of reserpine-induced catatonia: 2 (represents 50% inhibition of catatonia in comparison with the controls (namely a score of 5 per studied batch))
In vivo
  LD50 at 240 h: > 120 mg/kg

## C#CCN(CC#C)C(CCC)(CCC)CCC [Compound 39, N,n-dipropargyl-1,1-di-n-propyl-n-butylamine]
[5]; 15 mg/kg
  Inhibition of reserpine-induced catatonia: 2 (represents 50% inhibition of catatonia in comparison with the controls (namely a score of 5 per studied batch))
In vivo
  LD50 at 240 h: > 150 mg/kg

## CCCC(CCC)(CCC)N1CC1 [Compound 40, N,n-ethylene-1,1-di-n-propyl-n-butylamine]
[5]; 6 mg/kg
  Inhibition of reserpine-induced catatonia: 2 (represents 50% inhibition of catatonia in comparison with the controls (namely a score of 5 per studied batch))
[4]; 6 mg/kg
  Inhibition of the neuroleptic-induced catatonia: 1 (represents 20 to 30% inhibition of catatonia in comparison with the controls (namely a score of 7 to 8 per studied batch))
[4]; 12 mg/kg
  Inhibition of the neuroleptic-induced catatonia: 3 (represents 70 to 80% inhibition of catatonia in comparison with the controls (namely a score of 2 or 3 per studied batch))
mice
  Index LD50/ED20-30: > 25
In vivo
  LD50 at 240 h: > 150 mg/kg

## C=NC(CCC)(CCC)CCC [Compound 41]
mice
  Index LD50/ED100: 27
In vivo
  LD50 at 240 h: > 150 mg/kg

## CC=NC(CCC)(CCC)CCC [Compound 42, N-ethylidene-1,1-di-n-propyl-n-butylamine]
mice
  Index LD50/ED100: 20
In vivo
  LD50 at 240 h: 120 mg/kg

## CCCC(CCC)(CCC)NCCO [Compound 43, N-(2-hydroxyethyl)-1,1-di-n-propyl-n-butylamine]
[4]; 6.5 mg/kg
  Inhibition of the neuroleptic-induced catatonia: 1 (represents 20 to 30% inhibition of catatonia in comparison with the controls (namely a score of 7 to 8 per studied batch))
mice
  Index LD50/ED20-30: 23
In vivo
  LD50 at 240 h: 150 mg/kg

## CCCC(CCC)(CCC)N(CCO)CCO [Compound 44, N,n-bis-(2-Hydroxyethyl)-1,1-di-n-propyl-n-butylamine]
[4]; 15 mg/kg
  Inhibition of the neuroleptic-induced catatonia: 1 (represents 20 to 30% inhibition of catatonia in comparison with the controls (namely a score of 7 to 8 per studied batch))

## CCCC(CCC)(CCC)NCCCO [Compound 45, N-(3-hydroxy-n-propyl)-1,1-di-n-propyl-n-butylamine]
[5]; 14 mg/kg
  Inhibition of reserpine-induced catatonia: 2 (represents 50% inhibition of catatonia in comparison with the controls (namely a score of 5 per studied batch))
In vivo
  LD50 at 240 h: 140 mg/kg

## CCCC(CCC)(CCC)N1CCOCC1 [Compound 46, N,n-(3-oxyapentamethylene)-1,1-di-n-propyl-n-butylamine]
mice
  Index LD50/ED20-30: 31
In vivo
  LD50 at 240 h: 250 mg/kg
